{"source": "patent US9969741B2", "about": "“Pyrazolotriazines as inhibitors of nucleases” (MASARYKOVA UNIVERZITA, priority 2014, dated 2018)", "key": {"[1]": {"molecular_target": "T1, MUS81/EME1 (Homo sapiens, UniProt Q96NY9)", "T1 sequence (Q96NY9 1-551)": "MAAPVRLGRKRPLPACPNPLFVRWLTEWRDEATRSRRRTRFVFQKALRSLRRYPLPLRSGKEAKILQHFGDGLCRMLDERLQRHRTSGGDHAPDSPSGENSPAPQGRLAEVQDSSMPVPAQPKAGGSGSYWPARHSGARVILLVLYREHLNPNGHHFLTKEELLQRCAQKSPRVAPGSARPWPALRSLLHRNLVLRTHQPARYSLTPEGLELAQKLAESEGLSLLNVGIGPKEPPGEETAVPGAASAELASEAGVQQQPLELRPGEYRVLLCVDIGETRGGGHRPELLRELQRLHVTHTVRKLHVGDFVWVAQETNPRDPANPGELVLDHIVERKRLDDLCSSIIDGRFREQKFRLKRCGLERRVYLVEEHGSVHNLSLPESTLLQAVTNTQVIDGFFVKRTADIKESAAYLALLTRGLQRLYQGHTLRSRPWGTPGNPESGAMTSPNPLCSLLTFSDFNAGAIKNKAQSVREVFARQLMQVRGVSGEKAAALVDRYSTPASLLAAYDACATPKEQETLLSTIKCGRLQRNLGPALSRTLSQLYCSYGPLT", "T1 sequence (Q96AY2 1-570 partner)": "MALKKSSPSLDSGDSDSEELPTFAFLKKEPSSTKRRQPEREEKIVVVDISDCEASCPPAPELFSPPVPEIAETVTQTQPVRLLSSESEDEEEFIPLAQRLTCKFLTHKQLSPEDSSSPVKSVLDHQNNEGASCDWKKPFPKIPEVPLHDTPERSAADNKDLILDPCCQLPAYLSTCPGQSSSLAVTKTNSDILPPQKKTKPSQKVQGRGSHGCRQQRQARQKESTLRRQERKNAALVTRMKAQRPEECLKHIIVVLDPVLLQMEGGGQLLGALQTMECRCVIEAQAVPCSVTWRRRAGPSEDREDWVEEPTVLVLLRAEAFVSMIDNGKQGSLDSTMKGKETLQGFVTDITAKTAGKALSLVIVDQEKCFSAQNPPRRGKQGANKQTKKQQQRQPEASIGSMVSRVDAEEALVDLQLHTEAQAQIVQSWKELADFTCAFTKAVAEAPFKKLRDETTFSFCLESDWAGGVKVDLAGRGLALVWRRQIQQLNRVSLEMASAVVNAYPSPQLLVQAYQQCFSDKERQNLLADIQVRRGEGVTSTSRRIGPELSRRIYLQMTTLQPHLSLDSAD", "assay": "Nuclease inhibition assay, MUS81/EME1 (3′ flap fluorescent DNA substrate, gel readout)", "format": "biochemical", "conditions": "5 nM enzyme, 5 nM 3′ flap substrate, 15 min at 30° C.", "text": "In vitro assays were used for the determination of compound's IC50 values for inhibition of individual nucleases, i.e., MUS81/EME1, FEN1, EXO1, and MRE11. To generate IC50 values, concentration of compound was plotted against relative nuclease activity (in %). The dose-response curves were generated from inhibition data, from 5 point serial dilutions of inhibitory compounds, each in triplicate and fitted to a standard sigmoid curve. IC50 values were derived by standard nonlinear regression analysis.\nAll tested compounds were diluted in 100% DMSO (dimethylsulfoxide) to prepare working stocks with different concentrations. To keep the DMSO concentration constant in every reaction, always 0.5 μl of the compound stock was added to the reaction buffer. The reaction buffer differs depending on the enzyme tested. Also concentration of the compounds in the reaction depends on the particular enzyme, since the inhibitory effect of the compounds vary between the enzymes. Nevertheless, always doubling dilutions in the range 200-0.8 μM was used. The compound was added as the first component in the reaction buffer, followed by the enzyme addition. Short (15 minutes) pre-incubation step followed before the reaction was initiated by addition of DNA substrate (5 nM).\nAs a negative control, DNA substrate specific for each particular enzyme without the addition of the enzyme and the compound was used. The positive control contained all components of the reaction, except the compound of interest. However, to compensate for solvent effects, DMSO (at a final concentration of 2.5%) was included in the reaction.\nFor this experiment we prepared short fluorescently labeled oligonucleotide-based DNA substrates with specific structures reflecting the biochemical activities of tested individual nucleases (Table 1). These substrates were prepared by annealing of synthetic oligonucleotides purchased from VBC Biotech. Composition of each substrate is indicated below the table; the corresponding oligonucleotides were combined in equimolar ratios. For visualization, each substrate was labeled by fluorescent dye (fluorescein), which can be detected in the gel using appropriate imaging system (FLA-9000, Fuji) with filters for particular wavelengths (excitation: 485 nm, emission: 535 nm).\nNuclease assays were performed in reaction buffer specific for particular enzyme: MUS81/EME1 (50 mM Tris pH=7.5, 5 mM MgCl2, 1 mM DTT a 100 μg/ml BSA), MRE11 (30 mM Bis-Tris pH=7.0, 50 μg/ml BSA, 1 mM DTT a 250 μM MnCl2), EXO1 and FEN1 (50 mM Tris pH=7.5, 1 mM MgCl2, 1 mM DTT a 100 μg/ml BSA). The individual reactions were prepared by mixing with highly purified enzyme (MUS81/EME1 (5 nM), MRE11 (5 nM), EXO1 (5 nM) or FEN1 (10 nM); purification protocols described below), and different concentration of inhibitor (mentioned above) in corresponding reaction buffer. The final volume of the reaction was 20 μl. After short pre-incubation (15 minutes at room temperature), the reaction was initiated by addition of 5 nM of corresponding fluorescently labeled DNA substrate (3′ flap for MUS81/EME1, 5′ flap for MRE11 and FEN1, 3′ OH for EXO1; see FIG. 1) and incubated for 15 minutes at 30° C. Next, the reaction was stopped and deproteinized by addition of 2 μl of stop buffer, containing 0.1% SDS and 500 μg/ml proteinase K, and incubated for additional 5 minutes at 30° C. Then the loading dye, containing glycerol (60% glycerol, 10 mM Tris pH=7.4, 60 mM EDTA a 0.1% Orange G), was added to each reaction ( 1/10 of the reaction volume), and the whole mixture was subjected to electrophoresis in 10% polyacrylamide native gel (110 V, 40 min, 1× TBE). Fluorescently labeled DNA was detected by FLA-9000 scanner (Fuji) and the result was evaluated using Multi-Gauge V3.2 software (Fuji).\nThe Mus81/Eme1 expression construct was a kind gift from Dr. Steve West (Cancer Research UK). Briefly, the nuclease complex was purified as follows. […]"}}, "data": [{"compound": "CC(C)(C)[Si](OCc1cc2nnc(-c3nc4ccccc4[nH]3)c(N)n2n1)(c1ccccc1)c1ccccc1", "values": [{"measurement": "melting point", "result": "233.5 to 234", "unit": "°C"}]}, {"compound": "CCc1cc2nnc(-c3nc4ccccc4[nH]3)c(N)n2n1", "note": "[Preparative Example 5B]", "values": [{"measurement": "IC50", "setting": "[1]", "result": "< 50", "unit": "µM"}]}, {"compound": "CC(C)c1nn2c(N)c(-c3nc4ccccc4[nH]3)nnc2c1-c1ccc(F)cc1", "note": "[Preparative Example 5D]", "values": [{"measurement": "IC50", "setting": "[1]", "result": "< 50", "unit": "µM"}]}, {"compound": "CC(C)(C)c1cc2nnc(-c3nc4ccccc4[nH]3)c(N)n2n1", "note": "[Preparative Example 5F]", "values": [{"measurement": "IC50", "setting": "[1]", "result": "< 50", "unit": "µM"}]}, {"compound": "Nc1c(-c2nc3ccccc3[nH]2)nnc2cc(-c3ccccc3Cl)nn12", "note": "[Preparative Example 5G]", "values": [{"measurement": "IC50", "setting": "[1]", "result": "< 50", "unit": "µM"}]}, {"compound": "Nc1c(-c2nc3ccccc3[nH]2)nnc2cc(-c3ccccc3-c3ccccc3)nn12", "note": "[Preparative Example 5L]", "values": [{"measurement": "melting point", "result": "> 250", "unit": "°C"}]}, {"compound": "CCc1nn2c(N)c(-c3nc4ccccc4n3Cc3ccccc3)nnc2c1-c1ccc(F)cc1", "note": "[Preparative Example 5M]", "values": [{"measurement": "IC50", "setting": "[1]", "result": "< 50", "unit": "µM"}]}, {"compound": "CCc1cc2nnc(-c3nc4ccccc4n3Cc3ccccc3)c(N)n2n1", "note": "[Preparative Example 5N]", "values": [{"measurement": "IC50", "setting": "[1]", "result": "< 50", "unit": "µM"}]}, {"compound": "Nc1c(-c2nc3ccccc3[nH]2)nnc2ccnn12", "note": "[Preparative Example 5O]", "values": [{"measurement": "IC50", "setting": "[1]", "result": "> 50", "unit": "µM"}]}, {"compound": "Nc1c(-c2nc3ccccc3[nH]2)nnc2c(-c3ccc(F)cc3)cnn12", "note": "[Preparative Example 5P]", "values": [{"measurement": "IC50", "setting": "[1]", "result": "> 50", "unit": "µM"}]}, {"compound": "CCc1nn2c(N)c(-c3nc4ccccc4[nH]3)nnc2c1-c1cccc(-c2ccccc2)c1", "note": "[Preparative Example 5Y]", "values": [{"measurement": "IC50", "setting": "[1]", "result": "< 10", "unit": "µM"}]}, {"compound": "CCc1nn2c(N)c(-c3nc4ccccc4[nH]3)nnc2c1-c1cccc(C(=O)OC)c1", "note": "[Preparative Example 5Z]", "values": [{"measurement": "IC50", "setting": "[1]", "result": "< 10", "unit": "µM"}]}, {"compound": "CCc1nn2c(N)c(-c3nc4ccccc4[nH]3)nnc2c1-c1cccc(C(=O)O)c1", "note": "[Preparative Example 5Zb]", "values": [{"measurement": "IC50", "setting": "[1]", "result": "< 10", "unit": "µM"}]}, {"compound": "Nc1c(-c2nc3ccccc3[nH]2)nnc2cc(CO)nn12", "note": "[Preparative Example 6]", "values": [{"measurement": "IC50", "setting": "[1]", "result": "> 50", "unit": "µM"}]}, {"compound": "Nc1c(-c2nc3ccccc3[nH]2)nnc2cc(C=O)nn12", "note": "[Preparative Example 7]", "values": [{"measurement": "melting point", "result": "> 250", "unit": "°C"}]}, {"compound": "CCc1nn2c(O)c(-c3nc4ccccc4[nH]3)nnc2c1-c1ccc(F)cc1", "note": "[Preparative Example 8A]", "values": [{"measurement": "IC50", "setting": "[1]", "result": "< 10", "unit": "µM"}]}, {"compound": "CCc1nn2c(N)c(C#N)nnc2c1-c1ccc(F)cc1", "note": "[Preparative Example 11]", "values": [{"measurement": "IC50", "setting": "[1]", "result": "> 50", "unit": "µM"}, {"measurement": "melting point", "result": "> 215 °C (dec.)"}]}, {"compound": "CCc1nn2c(N)c(C(N)=O)nnc2c1-c1ccc(F)cc1", "note": "[Preparative Example 12]", "values": [{"measurement": "IC50", "setting": "[1]", "result": "> 50", "unit": "µM"}]}, {"compound": "CCc1nn2c(N)c(-c3nc4ccccc4[nH]3)nnc2c1Br", "note": "[Preparative Example 13]", "values": [{"measurement": "melting point", "result": "> 250", "unit": "°C"}]}, {"compound": "CS(=O)(=O)c1ccc(-c2cnn3c(O)c(-c4nc5ccccc5n4Cc4ccccc4)nnc23)cc1", "note": "[Preparative Example 17A]", "values": [{"measurement": "IC50", "setting": "[1]", "result": "< 10", "unit": "µM"}]}, {"compound": "O=[N+]([O-])c1ccc(-c2cnn3c(O)c(-c4nc5ccccc5n4Cc4ccccc4)nnc23)cc1", "note": "[Preparative Example 17B]", "values": [{"measurement": "IC50", "setting": "[1]", "result": "< 10", "unit": "µM"}]}, {"compound": "Oc1c(-c2nc3ccccc3n2Cc2ccccc2)nnc2c(-c3ccsc3)cnn12", "note": "[Preparative Example 17C]", "values": [{"measurement": "IC50", "setting": "[1]", "result": "< 50", "unit": "µM"}]}, {"compound": "Oc1c(-c2nc3ccccc3n2Cc2ccccc2)nnc2c(-c3ccncc3)cnn12", "note": "[Preparative Example 17D]", "values": [{"measurement": "IC50", "setting": "[1]", "result": "< 10", "unit": "µM"}]}, {"compound": "Cn1ccc(-c2cnn3c(O)c(-c4nc5ccccc5n4Cc4ccccc4)nnc23)n1", "note": "[Preparative Example 17E]", "values": [{"measurement": "IC50", "setting": "[1]", "result": "< 50", "unit": "µM"}]}, {"compound": "CS(=O)(=O)c1ccc(-c2cnn3c(O)c(-c4nc5ccccc5[nH]4)nnc23)cc1", "note": "[Preparative Example 18A]", "values": [{"measurement": "IC50", "setting": "[1]", "result": "< 10", "unit": "µM"}]}, {"compound": "Cn1ccc(-c2cnn3c(O)c(-c4nc5ccccc5[nH]4)nnc23)n1", "note": "[Preparative Example 18B]", "values": [{"measurement": "IC50", "setting": "[1]", "result": "< 50", "unit": "µM"}]}, {"compound": "CCc1nn2c(O)c(-c3nc4cc(C)c(C)cc4[nH]3)nnc2c1-c1ccc(F)cc1", "note": "[Preparative Example 21]", "values": [{"measurement": "IC50", "setting": "[1]", "result": "< 10", "unit": "µM"}]}]}
